Results as given in article PMC10610044, “The Cocrystal of Ubiquinol: Improved Stability and Bioavailability” (Pharmaceutics, 2023).

What was measured:
[1] = Open stability study (25 °C, 60% RH, open conditions); format: physicochemical; conditions: after 4 weeks, content at day 0 set as 100%
Protocol: Open stability was conducted at 25 °C, 60% RH, under open conditions without package and nitrogen protection. Accelerated stability was conducted at 40 °C, 75% RH, packaged with aluminum foil bags. The ubiquinol polymorph II and UQ-NC cocrystal were taken out at various intervals during exposure (open stability at 0, 3, 7, 14, 21, and 28 days and accelerated stability at 0, 1, 2, 3, and 6 months).
An Agilent 1260 series HPLC was used to determine the content of ubiquinol. The HPLC was equipped with a quaternary pump (G1311C), diode-array detector (G1315D), and a 4.6 mm × 100 mm, 2.7 μm packing L1 column. The detector was set at 290 nm. A mobile phase consisting of methanol and n-hexane (85/15, v/v) was run for 10 min at 1.5 mL/min. An injection of 20 μL was performed and the column temperature was set at 35 °C.

[2] = Powder dissolution in simulated intestinal fluid (SIF) with 0.5% tween 80; format: physicochemical; conditions: SIF with 0.5% tween 80, 37 °C, up to 180 min
Protocol: (§1) Powder dissolution experiments were conducted in simulated intestinal fluid (SIF) and simulated gastric fluid (SGF) with 0.5% tween 80 at 37 °C using a Mini-Bath dissolution device equipped with a Julabo ED-5 heater/circulator. SIF was prepared by dissolving 6.8 g of KH2PO4 in 500 mL of water and then the pH was adjusted to 6.8 with 0.1 mol/L og NaOH solution. In total, 10 g of pancreatin was added and finally the solution was diluted to 1000 mL with water to obtain the SIF. SGF was prepared by mixing 16.4 mL of 10% HCl solution, 800 mL of water, and 10g of pepsin. Finally, the solution was diluted to 1000 mL with water to obtain the SGF. A total of 9.3 mg of cocrystal and 8.2 mg of polymorph II were added into 20 mL of the buffer solution. The stirring speed was set to 75 rpm. To minimize the size effect on the dissolution results, the ubiquinol cocrystal and polymorph II were sieved through 80-mesh sieves. Samples were collected at 5, 15, 20, 25, 30, 40, 50, 60, 80, 130, and 180 min each time, and were filtered through the 0.45 μm nylon filters. The concentration of ubiquinol was determined using HPLC. The detailed HPLC analysis method is described in Section 2.10.
(§2) An Agilent 1260 series HPLC was used to determine the content of ubiquinol. The HPLC was equipped with a quaternary pump (G1311C), diode-array detector (G1315D), and a 4.6 mm × 100 mm, 2.7 μm packing L1 column. […]

[3] = Powder dissolution in simulated gastric fluid (SGF) with 0.5% tween 80; format: physicochemical; conditions: SGF with 0.5% tween 80, 37 °C, up to 180 min
Protocol: as §1, §2

[4] = Pharmacokinetic study in male Sprague Dawley rats, plasma total coenzyme Q10; format: in vivo; conditions: rat, gavage, 100 mg/kg as ubiquinol equivalents
Protocol: Pharmacokinetic experiments were conducted on male Sprague Dawley rats to compare the oral exposure of the UQ-NC cocrystal and the ubiquinol marketed form II. The two ubiquinol samples were dispersed homogeneously in 0.5% CMC-Na (sodium carboxymethylcellulose) and 0.5% tween 80 aqueous solution to obtain the suspension of 10 mg/mL of ubiquinol. Twelve male Sprague Dawley rats weighing […] were randomly allocated into two groups (six rats in each group). Each received gavage administration at a dose of 100 mg/kg body (expressed as ubiquinol equivalents). After this administration, approximately 200 μL of blood sample was collected from the orbital sinus into heparinized tubes at 0, 1, 2, 3, 4, 6, 8, and 24 h for each rat.
In this experiment, the whole process was protected from light. An aliquot of 100 µL of plasma sample was added to 100 µL of p-benzoquinone and then placed for 10 min after vortex mixing. Next, a 400 µL methanol solution containing 1 µg/mL of IS Q9 and 1mL of n-hexane was added. The mixture was vortexed for 5 min and centrifuged at 14,000 rpm for 1 min. In total, 0.825 mL of the upper extract was transferred and dried under the condition of 30 °C nitrogen, and 200 µL of ethanol equal solution was added for re dissolution, vortexed, and mixed well. An aliquot of 4.00 µL of supernatant was injected for an LC-MS/MS analysis.
The quantification of coenzyme Q10 in the plasma samples was accomplished using an AB Sciex Triple Quad 4500 LC-MS instrument manufactured by SCIEX Co., Ltd., Framingham, MA, USA. Chromatography consisted of a Column NO.ZORBAX Eclipse Plus C18 (50 mm × 4.6 mm, 1.8 μm). The mobile phase consisted of acetonitrile and alcohol (50/50, v/v) at a flow rate of 1.0 mL min-1. An injection of 10 μL was performed and the column temperature was set to 40 °C. The detector was set at 290 nm. Multiple reaction monitoring modes (MRM) were used to perform the detection and quantification, with m/z 863.8→197.4 for coenzyme Q10. The DAS 2.0 program was used to perform the PK analysis.

[5] = set-up: method as in earlier work; conditions: after four weeks, open conditions, 25 °C; cited from earlier work
[6] = set-up: method as in PMID 16551570; conditions: oral; cited from earlier work
[7] = set-up: method as in doi:10.1016/j.jff.2008.09.010; conditions: single 100 mg/day dose, individuals of >60 years; cited from earlier work
[8] = 200 mg/day with a main meal, 2-week supplementation, ten older men; cited from earlier work
[9] = tested on: human dermal fibroblasts; set-up: method as in PMID 33482334; conditions: compared to ubiquinone; cited from earlier work
[10] = set-up: method as in PMID 19096107; conditions: patients changed from ubiquinone to ubiquinol; cited from earlier work
[11] = set-up: method as in PMID 33673604; conditions: 1500 mg/day, multiple-system atrophy; cited from earlier work
[12] = set-up: method as in PMID 7666987; conditions: 5-year period; cited from earlier work

Q: With `COc1c(O)c(C)c(C/C=C(\C)CC/C=C(\C)CC/C=C(\C)CC/C=C(\C)CC/C=C(\C)CC/C=C(\C)CC/C=C(\C)CC/C=C(\C)CC/C=C(\C)CCC=C(C)C)c(O)c1OC` [polymorph II, ubiquinol] as the compound, how does the “assay value of ubiquinol” value [1] read?
A: The value was 94.2%.

Q: And the “AUC (dissolution)” value [2]?
A: The value was 4500 µg·h/mL.

Q: What about the “Cmax (dissolution, ubiquinol concentration)” value [2] of the same compound?
A: Its value is 90000 ng/mL.

Q: And the “AUC (dissolution)” value [3]?
A: The value was 1500 µg·h/mL.

Q: And the “Cmax (dissolution, ubiquinol concentration)” value [3]?
A: Its value is 30000 ng/mL.

Q: What about the “AUC0–8h” value [4] of the same compound?
A: The value was 0.1919 µg·h/mL.

Q: And the Cmax [4]?
A: Its Cmax is 71.2 ng/mL.

Q: And the MRT [4]?
A: Its MRT is 43.3 h.

Q: What about the T1/2 [4] of the same compound?
A: Its T1/2 is 29.9 h.

Q: And the Tmax [4]?
A: The Tmax was 8.0 h.

Q: What about the “ubiquinol transformed to ubiquinone” value [5] of the same compound?
A: Its value is “about 6.9%”.

Q: Which “orally administered absorption efficiency” value [6] does the source give for `COC1=C(OC)C(=O)C(C/C=C(\C)CC/C=C(\C)CC/C=C(\C)CC/C=C(\C)CC/C=C(\C)CC/C=C(\C)CC/C=C(\C)CC/C=C(\C)CC/C=C(\C)CCC=C(C)C)=C(C)C1=O` [CoQ10, Coenzyme Q10] here?
A: Its value is 2–3%.

Q: Which results are given for `COc1c(O)c(C)c(C/C=C(\C)CC/C=C(\C)CC/C=C(\C)CC/C=C(\C)CC/C=C(\C)CC/C=C(\C)CC/C=C(\C)CC/C=C(\C)CC/C=C(\C)CCC=C(C)C)c(O)c1OC` [ubiquinol]?
A: increase of plasma AUC0–72h compared with ubiquinone [7]: 430%; plasma AUC0–72h compared with subjects receiving ubiquinone [7]: 4.3 fold; plasma CoQ10 status [8]: significant increase; reverting the expression of the senescent phenotype (β-galactosidase positivity, p21, collagen type 1, elastin) [9]: more efficient; symptoms of heart failure [10]: significantly improved; decline in UMSARS part 2 score compared to placebo [11]: significantly smaller decline; tolerability [11]: well-tolerated

Q: With `NC(=O)c1cccnc1` [nicotinamide] as the compound, how does the “reduction in the development of insulin-dependent diabetes mellitus” value [12] read?
A: Its value is 50%.

Q: With `COc1c(O)c(C)c(C/C=C(\C)CC/C=C(\C)CC/C=C(\C)CC/C=C(\C)CC/C=C(\C)CC/C=C(\C)CC/C=C(\C)CC/C=C(\C)CC/C=C(\C)CCC=C(C)C)c(O)c1OC` [polymorph I, ubiquinol] as the compound, how does the “assay value of ubiquinol” value [1] read?
A: Its value is 28.3%.
